This assay deals with T1, APOL1 G1 Protein (Homo sapiens, UniProt O14791, I384M/S342G).
T1 sequence (O14791 28-398 S342G/I384M): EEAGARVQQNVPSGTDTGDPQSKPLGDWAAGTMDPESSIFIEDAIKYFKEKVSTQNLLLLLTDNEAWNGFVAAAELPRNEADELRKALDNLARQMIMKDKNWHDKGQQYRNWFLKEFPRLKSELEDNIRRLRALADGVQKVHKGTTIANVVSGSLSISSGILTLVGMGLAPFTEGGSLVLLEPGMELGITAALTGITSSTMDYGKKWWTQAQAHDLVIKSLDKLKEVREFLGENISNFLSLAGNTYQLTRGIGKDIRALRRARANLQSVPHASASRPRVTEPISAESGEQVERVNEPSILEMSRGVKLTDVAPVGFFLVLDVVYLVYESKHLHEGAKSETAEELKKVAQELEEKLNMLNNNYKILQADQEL
Description: Trypanosoma brucei brucei lysis assay using APOL1 recombinant protein (AlamarBlue viability). It is filed as cell-based. An outline of the steps: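 Bloodstream-form T. b. brucei Lister 427 VSG 221, 120,000 parasites/well in phenol red-free, FBS-free medium, lysed by recombinant APOL1 G1 with compound (10-point dose response, 0.1% DMSO final). Viability read by AlamarBlue fluorescence against a parasite standard curve.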
(Resazurin is reduced to fluorescent resorufin, in cell work by metabolically active cells.)

Setting [1] is: Trypanosoma brucei brucei lysis, recombinant APOL1, AlamarBlue, read-out: Trypanosoma Assay (IC50).
Where [2] appears, read: Table 24, Compounds 287 to 465, read-out: Trypanosoma Assay (IC50).

The term IC50 denotes the concentration that inhibits the measured activity by half.

Like-named read-outs stand apart in the source and are kept apart here.

On to `CC1C[C@H](NC(=O)[C@H]2C[C@H](c3c(-c4ccc(F)cc4)[nH]c4c(F)cc(F)cc43)C2)C(=O)N1` (mixture of isomers) [Compound 84], for which, under setting [1], the 50% inhibitory concentration (IC50) lay within 0.25 to 1 µM.
For the compound `CC(O)CN(C)C(=O)[C@H]1C[C@H](c2c(-c3ccc(F)cc3)[nH]c3c(F)cc(F)cc32)C1` (stereo partly shown) [Compound 90], under setting [1], the IC50 lay in the range of 0.25 to 1 µM.
Consider `NC(=O)CNCC1CC(c2c(-c3ccc(F)cc3)[nH]c3c(F)cc(F)cc23)C1` (stereo not shown) [Compound 433, 2-(((3-(5,7-difluoro-2-(4-fluorophenyl)-1H-indol-3-yl)cyclobutyl)methyl)amino)acetamide], for which the IC50 under setting [2] was < 0.25 µM.
For the compound `O=C(OC1CN(C(=O)[C@H]2C[C@H](c3c(-c4ccc(F)cc4)[nH]c4c(F)cc(F)cc43)C2)C1)C1CCOCC1` [Compound 85], the IC50 under setting [1] is < 0.25 µM.
Still for that read-out and setting: the figure for `O=C(NCC1CC(F)(F)C1)[C@H]1C[C@H](c2c(-c3ccc(F)cc3)[nH]c3c(F)cc(F)cc32)C1` [Compound 41] is > 1 µM; for `Cc1cc(CNC(=O)[C@H]2C[C@H](c3c(-c4ccc(F)cc4)[nH]c4c(F)cc(F)cc43)C2)nn1C` [Compound 73] it is 0.25 to 1 µM.
The same measure, in the same setting: the figure for `NC(=O)C1(NC(=O)[C@H]2C[C@H](c3c(-c4ccc(F)cc4)[nH]c4c(F)cc(F)cc43)C2)CC1` [Compound 56] is 0.25 to 1 µM; for `CCOCC1(CNC(=O)[C@H]2C[C@H](c3c(-c4ccc(F)cc4)[nH]c4c(F)cc(F)cc43)C2)CC1` [Compound 55] it is > 1 µM.
As for `NCC(O)CNC(=O)[C@H]1C[C@H](c2c(-c3ccc(F)cc3)[nH]c3c(F)cc(F)cc32)C1` (stereo partly shown) [Compound 3], the IC50 under setting [1] is 0.25 to 1 µM.
Consider `Cn1cnc(CNC(=O)[C@H]2C[C@H](c3c(-c4ccc(F)cc4)[nH]c4c(F)cc(F)cc43)C2)c1` [Compound 48], for which, under setting [1], the half-inhibitory concentration (IC50) was < 0.25 µM.
Take `C[C@@H](NC(=O)[C@H]1C[C@H](c2c(-c3ccc(F)cc3)[nH]c3c(F)cc(F)cc32)C1)C(=O)N(C)C` [Compound 61]: the IC50 under setting [1] was > 1 µM.
On to `NC(=O)CNC(=O)[C@H]1C[C@H](c2c(-c3ccc(F)cc3)[nH]c3c(F)cc(F)cc32)C1` [Compound 1, N-(2-amino-2-oxo-ethyl)-3-[5,7-difluoro-2-(4-fluorophenyl)-1H-indol-3-yl]cyclobutanecarboxamide], for which, under setting [1], the IC50 is < 0.25 µM.
Same read-out and setting: under `C[C@H](NC(=O)[C@H]1C[C@H](c2c(-c3ccc(F)cc3)[nH]c3c(F)cc(F)cc32)C1)C(=O)N(C)C` [Compound 65] stands 0.25 to 1 µM; under `O=C([C@H]1C[C@H](c2c(-c3ccc(F)cc3)[nH]c3c(F)cc(F)cc32)C1)N1CCCCC1CCO` (stereo partly shown) [Compound 94], > 1 µM.
On to `COCc1cc(CNC(=O)[C@H]2C[C@H](c3c(-c4ccc(F)cc4)[nH]c4c(F)cc(F)cc43)C2)n[nH]1` [Compound 72], for which the IC50 under setting [1] is > 1 µM.
The same measure, in the same setting: the figure for `O=C(CNC(=O)[C@H]1C[C@H](c2c(-c3ccc(F)cc3)[nH]c3c(F)cc(F)cc32)C1)NC1CC1` [Compound 50] is > 1 µM; for `CC1(O)CN(C(=O)[C@H]2C[C@H](c3c(-c4ccc(F)cc4)[nH]c4c(F)cc(F)cc43)C2)C1` [Compound 74] it is 0.25 to 1 µM.
On to `NCCCNC(=O)[C@H]1C[C@H](c2c(-c3ccc(F)cc3)[nH]c3c(F)cc(F)cc32)C1` [Compound 4], for which the concentration for half-maximal inhibition (IC50) under setting [1] was < 0.25 µM.
Take `COCC1(CNC(=O)[C@H]2C[C@H](c3c(-c4ccc(F)cc4)[nH]c4c(F)cc(F)cc43)C2)CC1` [Compound 53]: under setting [1], the IC50 is > 1 µM.
Regarding `CC(N)(C(=O)NC(=O)[C@H]1C[C@H](c2c(-c3ccc(F)cc3)[nH]c3c(F)cc(F)cc32)C1)C(F)(F)F` (stereo partly shown) [Compound 60], the IC50 under setting [1] was in the range of 0.25 to 1 µM.
`O=C(NCC1(O)CCCCC1)[C@H]1C[C@H](c2c(-c3ccc(F)cc3)[nH]c3c(F)cc(F)cc32)C1` [Compound 80]: the IC50 under setting [1] is > 1 µM.
For the compound `CN1CCN(C(=O)CNC(=O)[C@H]2C[C@H](c3c(-c4ccc(F)cc4)[nH]c4c(F)cc(F)cc43)C2)CC1` [Compound 67], the IC50 under setting [1] was > 1 µM.
Turning to `Cn1ccc(CNC(=O)[C@H]2C[C@H](c3c(-c4ccc(F)cc4)[nH]c4c(F)cc(F)cc43)C2)n1` [Compound 71], the half-inhibitory concentration (IC50) under setting [1] was < 0.25 µM.
`CN(C)C(=O)CN(C)C(=O)[C@H]1C[C@H](c2c(-c3ccc(F)cc3)[nH]c3c(F)cc(F)cc32)C1` [Compound 62]: under setting [1], the IC50 was > 1 µM.
The same measure, in the same setting: the figure for `CC(C)(NC(=O)[C@H]1C[C@H](c2c(-c3ccc(F)cc3)[nH]c3c(F)cc(F)cc32)C1)C(=O)N1CCOCC1` [Compound 66] is > 1 µM.
On to `NC(=O)CC1CC(c2c(-c3ccc(F)cc3)[nH]c3c(F)cc(F)cc23)C1` (stereo not shown) [Compound 455], for which the concentration for half-maximal inhibition (IC50) under setting [2] was < 0.25 µM.
For `CC(NC(=O)[C@H]1C[C@H](c2c(-c3ccc(F)cc3)[nH]c3c(F)cc(F)cc32)C1)c1ccn[nH]1` (mixture of isomers) [Compound 81], the IC50 under setting [1] was in the range of 0.25 to 1 µM.
For `NC(=O)C1CCCCN1C(=O)[C@H]1C[C@H](c2c(-c3ccc(F)cc3)[nH]c3c(F)cc(F)cc32)C1` (stereo partly shown) [Compound 92], the IC50 under setting [1] was 0.25 to 1 µM.
Consider `O=C(NCC1(CO)COC1)[C@H]1C[C@H](c2c(-c3ccc(F)cc3)[nH]c3c(F)cc(F)cc32)C1` [Compound 83], for which the half-maximal inhibitory concentration (IC50) under setting [1] is > 1 µM.
On to `O=C1NCCC1NC(=O)[C@H]1C[C@H](c2c(-c3ccc(F)cc3)[nH]c3c(F)cc(F)cc32)C1` (stereo partly shown) [Compound 2], for which the IC50 under setting [1] is < 0.25 µM.
For `CN(CC1(CO)CC1)C(=O)[C@H]1C[C@H](c2c(-c3ccc(F)cc3)[nH]c3c(F)cc(F)cc32)C1` [Compound 49], the IC50 under setting [1] is > 1 µM.
On to `NC(=O)CNC[C@H]1C[C@@H](c2c(-c3ccc(F)cc3)[nH]c3c(F)cc(F)cc32)C1` [Compound 447], for which, under setting [2], the IC50 was < 0.25 µM.
Consider `O=C([C@H]1C[C@H](c2c(-c3ccc(F)cc3)[nH]c3c(F)cc(F)cc32)C1)N1CCC(O)(O)CC1` [Compound 127], for which the half-inhibitory concentration (IC50) (Trypanosoma Assay (IC50), Trypanosoma brucei brucei lysis, recombinant APOL1, AlamarBlue) is 0.25 to 1 µM.
Take `COCC1(NC(=O)[C@H]2C[C@H](c3c(-c4ccc(F)cc4)[nH]c4c(F)cc(F)cc43)C2)CC1` [Compound 54]: the IC50 under setting [1] was < 0.25 µM.
In the case of `CC(=O)NC1CCCN(C(=O)[C@H]2C[C@H](c3c(-c4ccc(F)cc4)[nH]c4c(F)cc(F)cc43)C2)C1` (stereo partly shown) [Compound 91], the IC50 under setting [1] was > 1 µM.
Take `CC(NC(=O)[C@H]1C[C@H](c2c(-c3ccc(F)cc3)[nH]c3c(F)cc(F)cc32)C1)c1ccnn1C` (mixture of isomers) [Compound 76]: the half-inhibitory concentration (IC50) under setting [1] was > 1 µM.
On the same count and under the same terms, the figure for `O=C([C@H]1C[C@H](c2c(-c3ccc(F)cc3)[nH]c3c(F)cc(F)cc32)C1)N(CCO)C1CC1` [Compound 52] is 0.25 to 1 µM; for `CC(NC(=O)[C@H]1C[C@H](c2c(-c3ccc(F)cc3)[nH]c3c(F)cc(F)cc32)C1)c1ccn(C)n1` (mixture of isomers) [Compound 75] it is < 0.25 µM.
In the case of `C[C@H](O)CNC(=O)[C@H]1C[C@H](c2c(-c3ccc(F)cc3)[nH]c3c(F)cc(F)cc32)C1` [Compound 82], under setting [1], the IC50 fell in the range of 0.25 to 1 µM.
The same measure, in the same setting: the figure for `CC(C)(O)C1CN(C(=O)[C@H]2C[C@H](c3c(-c4ccc(F)cc4)[nH]c4c(F)cc(F)cc43)C2)C1` [Compound 86] is > 1 µM; for `O=C(NCC1(O)CCCC1)[C@H]1C[C@H](c2c(-c3ccc(F)cc3)[nH]c3c(F)cc(F)cc32)C1` [Compound 69] it is > 1 µM.
`CN(CCO)C(=O)[C@H]1C[C@H](c2c(-c3ccc(F)cc3)[nH]c3c(F)cc(F)cc32)C1` [Compound 79]: under setting [1], the IC50 is < 0.25 µM.
As for `CC(NC(=O)[C@H]1C[C@H](c2c(-c3ccc(F)cc3)[nH]c3c(F)cc(F)cc32)C1)C(N)=O` (mixture of isomers) [Compound 68], the IC50 under setting [1] fell in the range of 0.25 to 1 µM.

Values taken from patent US12116343B2, “Inhibitors of APOL1 and methods of using same” (Vertex Pharmaceuticals Incorporated, priority 2020, dated 2024).
